Source: ChEMBL document CHEMBL1148670, “Keto-1,3,4-oxadiazoles as cathepsin K inhibitors” (Bioorg Med Chem Lett, 2006)

Tests used:
Conditions in all cases: read-out: Ki app
Cathepsin S = Cathepsin S (Homo sapiens, UniProt P25774); test: Inhibition of human cathepsin S
Procathepsin L = Procathepsin L (Homo sapiens, UniProt P07711); test: Inhibition of human cathepsin L
Cathepsin K = target: T1, Cathepsin K (Homo sapiens, UniProt P43235); test: Inhibition of human cathepsin K
T1 sequence (P43235 whole entry): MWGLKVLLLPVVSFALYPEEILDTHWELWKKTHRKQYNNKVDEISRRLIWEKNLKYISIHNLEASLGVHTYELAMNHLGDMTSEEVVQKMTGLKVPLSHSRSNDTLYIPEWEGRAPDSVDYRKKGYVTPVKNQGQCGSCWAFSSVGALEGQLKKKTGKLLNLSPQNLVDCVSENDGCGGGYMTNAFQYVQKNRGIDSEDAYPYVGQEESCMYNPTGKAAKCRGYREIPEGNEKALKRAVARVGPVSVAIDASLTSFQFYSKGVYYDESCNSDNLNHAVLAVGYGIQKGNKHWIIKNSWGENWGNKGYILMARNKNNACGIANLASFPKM

Cathepsin B = Cathepsin B (Homo sapiens, UniProt P07858); test: Inhibition of human cathepsin B

Chain of Cathepsin S (P25774 whole entry): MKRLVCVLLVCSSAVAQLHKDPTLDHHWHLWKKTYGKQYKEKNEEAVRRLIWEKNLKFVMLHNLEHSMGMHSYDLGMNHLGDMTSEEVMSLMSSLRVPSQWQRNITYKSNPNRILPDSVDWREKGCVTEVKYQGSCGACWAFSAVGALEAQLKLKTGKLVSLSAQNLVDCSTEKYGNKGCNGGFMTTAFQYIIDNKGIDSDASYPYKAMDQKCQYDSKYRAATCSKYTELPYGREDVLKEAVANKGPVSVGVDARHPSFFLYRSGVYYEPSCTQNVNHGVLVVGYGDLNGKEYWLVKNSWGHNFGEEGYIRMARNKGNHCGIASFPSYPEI
Chain of Procathepsin L (P07711 whole entry): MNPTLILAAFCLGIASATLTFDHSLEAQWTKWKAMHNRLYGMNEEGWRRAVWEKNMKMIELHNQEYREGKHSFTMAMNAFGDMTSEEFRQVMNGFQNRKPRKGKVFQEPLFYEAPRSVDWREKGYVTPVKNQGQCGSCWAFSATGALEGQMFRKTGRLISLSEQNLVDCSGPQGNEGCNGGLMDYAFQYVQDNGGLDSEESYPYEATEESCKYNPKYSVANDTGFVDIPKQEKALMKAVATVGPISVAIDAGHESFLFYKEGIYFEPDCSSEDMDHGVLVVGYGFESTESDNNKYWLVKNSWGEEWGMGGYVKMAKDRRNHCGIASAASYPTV

How did the Ki (Cathepsin S) turn out when `CCC[C@H](NC(=O)[C@H](CC(C)C)C(=O)OCc1ccccc1)C(=O)c1nnc(-c2ccco2)o1` was run?
Its Ki is under 0.25 nM.

What about the Ki (Procathepsin L) of the same molecule?
The Ki was 1 nM.

And the Ki (Cathepsin K)?
The Ki was under 0.25 nM.

And the Ki (Cathepsin B)?
The Ki was 2 nM.

What does the source list for `CCC[C@H](NC(=O)C1(NC(=O)c2ccc(OC(F)(F)F)cc2)CCCCC1)C(=O)c1nnc(-c2cccc(C(F)(F)F)c2)o1`?
Ki (Cathepsin S): 3300 nM; Ki (Procathepsin L): 1400 nM; Ki (Cathepsin K): 54 nM; Ki (Cathepsin B): 1100 nM

With `CCC[C@H](NC(=O)C1(NC(=O)c2ccc(OC(F)(F)F)cc2)CCCCC1)C(=O)c1nnc(-c2ccc(C(F)(F)F)cc2)o1` as the molecule, how does the Ki (Cathepsin S) read?
Its Ki is 13000 nM.

What about the Ki (Procathepsin L) of the same molecule?
Its Ki is 11000 nM.

What about the Ki (Cathepsin K) of the same molecule?
The Ki was 550 nM.

What about the Ki (Cathepsin B) of the same molecule?
Its Ki is 23000 nM.

With `CCC[C@H](NC(=O)C1(NC(=O)c2ccc(OC(F)(F)F)cc2)CCCCC1)C(=O)c1nnc(-c2cccs2)o1` as the molecule, how does the Ki (Cathepsin S) read?
The Ki was 760 nM.

What about the Ki (Procathepsin L) of the same molecule?
The Ki was 2900 nM.

And the Ki (Cathepsin K)?
Its Ki is 5.2 nM.

What about the Ki (Cathepsin B) of the same molecule?
The Ki was 270 nM.

How did the Ki (Cathepsin S) turn out when `CCC[C@H](NC(=O)C1(NC(=O)c2ccc(OC(F)(F)F)cc2)CCCCC1)C(=O)c1nnc(C(C)(C)C)o1` was run?
The Ki was 17000 nM.

And the Ki (Procathepsin L)?
The Ki was 10000 nM.

And the Ki (Cathepsin K)?
Its Ki is 1300 nM.

And the Ki (Cathepsin B)?
Its Ki is 10000 nM.

`CCC[C@H](NC(=O)C1(NC(=O)c2ccc(OC(F)(F)F)cc2)CCCCC1)C(=O)c1nnc(-c2ccco2)o1` was tested. Which Ki (Cathepsin S) did it give?
The Ki was 350 nM.

What about the Ki (Procathepsin L) of the same molecule?
The Ki was 1000 nM.

What about the Ki (Cathepsin K) of the same molecule?
Its Ki is 1.7 nM.

What about the Ki (Cathepsin B) of the same molecule?
The Ki was 220 nM.

`CCC[C@H](NC(=O)C1(NC(=O)OC(C)(C)C)CCCCC1)C(=O)c1nnc(-c2ccco2)o1` was tested. Which Ki (Cathepsin S) did it give?
The Ki was 960 nM.

And the Ki (Procathepsin L)?
Its Ki is 18000 nM.

And the Ki (Cathepsin K)?
The Ki was 43 nM.

What about the Ki (Cathepsin B) of the same molecule?
The Ki was 7300 nM.

`CCC[C@H](NC(=O)C1(NC(=O)c2ccc(N(C)C)cc2)CCCCC1)C(=O)c1nnc(-c2ccco2)o1` was tested. Which Ki (Cathepsin S) did it give?
The Ki was 700 nM.

And the Ki (Procathepsin L)?
The Ki was 960 nM.

What about the Ki (Cathepsin K) of the same molecule?
Its Ki is 0.95 nM.

And the Ki (Cathepsin B)?
The Ki was 730 nM.

Which results are given for `CCC[C@H](NC(=O)Cc1ccccc1)C(=O)c1nnc(-c2ccco2)o1`?
Ki (Cathepsin S): 9200 nM; Ki (Procathepsin L): 150000 nM; Ki (Cathepsin K): 52000 nM; Ki (Cathepsin B): 110000 nM

How did the Ki (Cathepsin S) turn out when `CCC[C@H](NC(=O)OC(C)(C)C)C(=O)c1nnc(C(C)C)o1` was run?
The Ki was 130000 nM.

And the Ki (Procathepsin L)?
Its Ki is over 150000 nM.

And the Ki (Cathepsin K)?
Its Ki is 5600 nM.

And the Ki (Cathepsin B)?
The Ki was over 150000 nM.

For `CCC[C@H](NC(=O)C1(NC(=O)c2ccc(OC(F)(F)F)cc2)CCCCC1)C(=O)c1nnc(-c2ccc(OC)cc2)o1`, which Ki (Cathepsin S) is on record?
Its Ki is 20000 nM.

What about the Ki (Procathepsin L) of the same molecule?
The Ki was 37000 nM.

What about the Ki (Cathepsin K) of the same molecule?
Its Ki is 22 nM.

What about the Ki (Cathepsin B) of the same molecule?
Its Ki is 57000 nM.

How did the Ki (Cathepsin S) turn out when `CCC[C@H](NC(=O)OC(C)(C)C)C(=O)c1nnc(-c2cccs2)o1` was run?
The Ki was 12000 nM.

What about the Ki (Procathepsin L) of the same molecule?
The Ki was 63000 nM.

What about the Ki (Cathepsin K) of the same molecule?
The Ki was 810 nM.

What about the Ki (Cathepsin B) of the same molecule?
Its Ki is 120000 nM.

What does the source list for `CCC[C@H](NC(=O)OC(C)(C)C)C(=O)c1nnc(-c2ccc(N(C)C)cc2)o1`?
Ki (Cathepsin S): 28000 nM; Ki (Procathepsin L): 130000 nM; Ki (Cathepsin K): 33000 nM; Ki (Cathepsin B): > 150000 nM

Which Ki (Cathepsin S) does the source give for `CCC[C@H](NC(=O)C1(NC(=O)c2ccc(OC(F)(F)F)cc2)CCCCC1)C(=O)c1nnc(C(C)C)o1` here?
Its Ki is 800 nM.

And the Ki (Procathepsin L)?
Its Ki is 4600 nM.

And the Ki (Cathepsin K)?
Its Ki is 35 nM.

What about the Ki (Cathepsin B) of the same molecule?
Its Ki is 430 nM.

What does the source list for `CCC[C@H](NC(=O)[C@H](CC(C)C)NCC(F)(F)F)C(=O)c1nnc(-c2ccco2)o1`?
Ki (Cathepsin S): 240 nM; Ki (Procathepsin L): 2100 nM; Ki (Cathepsin K): 120 nM; Ki (Cathepsin B): 48000 nM

Which Ki (Cathepsin S) does the source give for `CCC[C@H](NC(=O)OCC(C)C)C(=O)c1nnc(-c2ccco2)o1` here?
Its Ki is 380 nM.

What about the Ki (Procathepsin L) of the same molecule?
Its Ki is 14000 nM.

What about the Ki (Cathepsin K) of the same molecule?
The Ki was 500 nM.

And the Ki (Cathepsin B)?
Its Ki is 16000 nM.

Which Ki (Cathepsin S) does the source give for `CCC[C@H](NC(=O)CCc1ccccc1)C(=O)c1nnc(-c2ccco2)o1` here?
The Ki was 2600 nM.

And the Ki (Procathepsin L)?
Its Ki is 100000 nM.

What about the Ki (Cathepsin K) of the same molecule?
Its Ki is 9600 nM.

What about the Ki (Cathepsin B) of the same molecule?
The Ki was 25000 nM.

`CCC[C@H](NC(=O)OCc1ccccc1)C(=O)c1nnc(-c2ccco2)o1` was tested. Which Ki (Cathepsin S) did it give?
The Ki was 2000 nM.

And the Ki (Procathepsin L)?
The Ki was 28000 nM.

What about the Ki (Cathepsin K) of the same molecule?
The Ki was 3000 nM.

What about the Ki (Cathepsin B) of the same molecule?
Its Ki is 34000 nM.

With `CCC[C@H](NC(=O)C1(NC(=O)c2ccc(OC(F)(F)F)cc2)CCCCC1)C(=O)c1nnc(-c2ccccc2)o1` as the molecule, how does the Ki (Cathepsin S) read?
Its Ki is 45000 nM.

What about the Ki (Procathepsin L) of the same molecule?
The Ki was 19000 nM.

And the Ki (Cathepsin K)?
Its Ki is 29 nM.

And the Ki (Cathepsin B)?
Its Ki is 73000 nM.

With `CCC[C@H](NC(=O)C1(NC(=O)c2ccc(OC(F)(F)F)cc2)CCCCC1)C(=O)c1nnc(-c2cccc(OC)c2)o1` as the molecule, how does the Ki (Cathepsin S) read?
The Ki was 10000 nM.

And the Ki (Procathepsin L)?
Its Ki is 7500 nM.

What about the Ki (Cathepsin K) of the same molecule?
Its Ki is 37 nM.

What about the Ki (Cathepsin B) of the same molecule?
Its Ki is 2100 nM.

Which results are given for `CCC[C@H](NC(=O)OC(C)(C)C)C(=O)c1nnc(-c2ccccc2OC)o1`?
Ki (Cathepsin S): 19000 nM; Ki (Procathepsin L): > 150000 nM; Ki (Cathepsin K): 17000 nM; Ki (Cathepsin B): > 150000 nM

How did the Ki (Cathepsin S) turn out when `CCC[C@H](NC(=O)C1(NC(=O)c2ccc(F)cc2)CCCCC1)C(=O)c1nnc(-c2ccco2)o1` was run?
Its Ki is 140 nM.

What about the Ki (Procathepsin L) of the same molecule?
Its Ki is 2900 nM.

And the Ki (Cathepsin K)?
Its Ki is 19 nM.

And the Ki (Cathepsin B)?
The Ki was 950 nM.

`CCC[C@H](NC(=O)C1(NC(=O)c2ccc(OC(F)(F)F)cc2)CCCCC1)C(=O)c1nnc(OC)o1` was tested. Which Ki (Cathepsin S) did it give?
The Ki was 320 nM.

And the Ki (Procathepsin L)?
The Ki was 160 nM.

And the Ki (Cathepsin K)?
Its Ki is 3.3 nM.

And the Ki (Cathepsin B)?
Its Ki is 93 nM.

`CCC[C@H](NC(=O)C1(NC(=O)c2ccc(OC(F)(F)F)cc2)CCCCC1)C(=O)c1nnc(CC)o1` was tested. Which Ki (Cathepsin S) did it give?
Its Ki is 470 nM.

What about the Ki (Procathepsin L) of the same molecule?
The Ki was 300 nM.

And the Ki (Cathepsin K)?
Its Ki is 7.9 nM.

What about the Ki (Cathepsin B) of the same molecule?
Its Ki is 98 nM.
